# Laboratory results taken from patent US11617777B2, “Cytotoxic and anti-mitotic compounds, and methods of using the same” (ZYMEWORKS BC INC., priority 2013, dated 2023).
# Where two headings read alike, the source gives them in different places.
# Test system: Jurkat cells
# Test: Cytotoxicity of compounds, CellTiter-Glo
# Format: cell-based, Human
# Conditions: Homo sapiens, Jurkat, read-out: EC50
# Source text: Cell lines used: Human T-cell leukemia cell line Jurkat (ATCC: TIB-152); HCC1954 (ATCC: CRL. 2338); Human Pancreatic cells lines: AsPC-1 (ATCC: CRL-1682), BxPC-3 (ATCC: CRL.1687), HPAF-II (ATCC: CRL.1997), MiaPaCa2 (ATCC: CRL.1420), PANC-1 (ATCC: CRL.1469), Capan-1 (ATCC: HTB-79), Capan-2 (ATCC: HTB-80) and the Human gastric carcinoma cell line NCI-N87 (ATCC: CRL. 5822); AML-193 (ATCC: CRL.9589), CCRF-CEM (ATCC: CCL-119), DU145 (ATCC: HTB-81), PC-3 (ATCC: CRL.1435), A-431 (ATCC: CRL.1555), HT-29 (ATCC: HTB-38), A-172 (ATCC: CRL.1620), NCI-H358 (ATCC: CRL.5807), A549 (ATCC: CCL-185), Colo-205 (ATCC: CCL-222), MDA-MB-231 (ATCC: HTB-26), OVCAR-3 (ATCC: HTB-161), OV-90 (ATCC: CRL.11732), OE19 (Sigma: 96071721), RT 112/84 (Sigma: 85061106).
# On the day prior to adding compounds, HCC1954 AsPC-1, BxPC-3, HPAF-II, MiaPaCa2, PANC-1, Capan-1, Capan-2 and NCI-N87 cells were added to opaque-walled 96-well tissue culture-treated microtiter plates using complete growth medium at a density of 2500 cells/100 microlitre (uL) of medium. These adherant cell lines cells were incubated for one night at 37° C./5% CO2 to allow the cells to attach to the microtiter plate surface. On the day that compounds were added, Jurkat cells are added to separate 96-well microtiter plates at 2500 cells/100 uL using the same growth medium as HCC1954. Compound were first serially diluted using dimethyl sulfoxide, and then the prepared dilutions are added to complete growth medium at five-times the final concentration—compounds were then titrated 1:3, eight steps. A control with no compound (growth medium alone) was included on each microtiter plate in sextuplicate. The prepared compounds titrations were added (twenty-five uL/well) in triplicate. The cells and compound titrations were incubated at 37° C./5% CO2 for three nights. After the incubation, cell viability is measured using CellTiter-Glo® reagent by adding thirty uL of prepared CellTiter-Glo® to each assay well. The assay is incubated for at least twenty minutes in the dark prior to measuring emitted luminescence using a microplate luminometer (500 ms integration time). The collected relative luminescence units (RLU) are converted to % cytotoxicity using the Growth medium alone control mentioned above (% Cytotoxicity=1−[Well RLU/average medium alone control RLU]).
# GraphPad Prism was used for generation of EC50 values using three parameter non-linear regression curve fitting.
# [1] = Table 6, Compound Cytotoxicity on Jurkat
# [2] = Table 3, Cytotoxicity of Compounds on Jurkat Cells
# [3] = Table 7, Cytotoxicity on Jurkat
smiles,measurement,setting,value
"CN[C@H](C(=O)N[C@H](C(=O)N(C)[C@H](/C=C(\C)C(=O)NS(=O)(=O)CC1CCCC1)C(C)C)C(C)(C)C)C(C)(C)c1ccccc1 [Compound 35, (S,E)-N-(cyclopentylmethylsulfonyl)-2,5-dimethyl-4-((S)—N,3,3-trimethyl-2-((S)-3-methyl-2-(methylamino)-3-phenylbutanamido)butanamido)hex-2-enamide]",EC50,[1],0.832 nM
"CN[C@H](C(=O)N[C@H](C(=O)N(C)[C@H](/C=C(\C)C(=O)NS(=O)(=O)Cc1ccccc1)C(C)C)C(C)(C)C)C(C)(C)c1ccc(OCCSC(C)=O)cc1 [Compound 95, S-2-(4-((S)-4-((S)-1-(((S,E)-2,5-dimethyl-6-oxo-6-(benzylsulfonamido)hex-4-en-3-yl)(methyl)amino)-3,3-dimethyl-1-oxobutan-2-ylamino)-2-methyl-3-(methylamino)-4-oxobutan-2-yl)phenoxy)ethylethanethioate]",EC50,[1],0.288 nM
"CN[C@H](C(=O)N[C@H](C(=O)N(C)[C@H](/C=C(\C)C(=O)NS(=O)(=O)c1ccc(CNC(=O)C(F)(F)F)cc1)C(C)C)C(C)(C)C)C(C)(C)c1ccccc1 [Compound 84, (S,E)-2,5-dimethyl-N-(4-((2,2,2-trifluoroacetamido)methyl)phenylsulfonyl)-4-((S)—N,3,3-trimethyl-2-((S)-3-methyl-2-(methylamino)-3-phenylbutanamido)butanamido)hex-2-enamide]",EC50,[2],1.39 nM
"CN[C@H](C(=O)N[C@H](C(=O)N(C)[C@H](/C=C(\C)C(=O)NS(=O)(=O)c1ccc(Cl)cc1)C(C)C)C(C)(C)C)C(C)(C)c1ccccc1 [Compound 17, (S,E)-N-(4-chlorophenylsulfonyl)-2,5-dimethyl-4-((S)—N,3,3-trimethyl-2-((S)-3-methyl-2-(methylamino)-3-phenylbutanamido)butanamido)hex-2-enamide]",EC50,[2],0.325 nM
"CN[C@H](C(=O)N[C@H](C(=O)N(C)[C@H](/C=C(\C)C(=O)NS(=O)(=O)c1cccc(N)c1)C(C)C)C(C)(C)C)C(C)(C)c1ccccc1 [Compound 48, (S,E)-N-(3-aminophenylsulfonyl)-2,5-dimethyl-4-((S)—N,3,3-trimethyl-2-((S)-3-methyl-2-(methylamino)-3-phenylbutanamido)butanamido)hex-2-enamide]",EC50,[2],0.208 nM
"CN[C@H](C(=O)N[C@H](C(=O)N(C)[C@H](/C=C(\C)C(=O)NS(=O)(=O)Cc1ccc(C#N)cc1)C(C)C)C(C)(C)C)C(C)(C)c1ccccc1 [Compound 69, (S,E)-N-(4-cyanobenzylsulfonyl)-2,5-dimethyl-4-((S)—N,3,3-trimethyl-2-((S)-3-methyl-2-(methylamino)-3-phenylbutanamido)butanamido)hex-2-enamide]",EC50,[1],1.56 nM
"CN[C@H](C(=O)N[C@H](C(=O)N(C)[C@H](/C=C(\C)C(=O)NS(=O)(=O)c1ccc(N)c(F)c1)C(C)C)C(C)(C)C)C(C)(C)c1ccccc1 [Compound 112, (S,E)-N-(4-amino-3-fluorophenylsulfonyl)-2,5-dimethyl-4-((S)—N,3,3-trimethyl-2-((S)-3-methyl-2-(methylamino)-3-phenylbutanamido)butanamido)hex-2-enamide]",EC50,[1],0.064 nM
same,EC50,[3],0.064 nM
"CN[C@H](C(=O)N[C@H](C(=O)N(C)[C@H](/C=C(\C)C(=O)NS(=O)(=O)c1c(C)cc(C)cc1C)C(C)C)C(C)(C)C)C(C)(C)c1ccccc1 [Compound 12, (S,E)-N-(mesitylsulfonyl)-2,5-dimethyl-4-((S)—N,3,3-trimethyl-2-((S)-3-methyl-2-(methylamino)-3-phenylbutanamido)butanamido)hex-2-enamide]",EC50,[2],0.03 nM
"CN[C@H](C(=O)N[C@H](C(=O)N(C)[C@H](/C=C(\C)C(=O)NS(=O)(=O)Cc1cccnc1)C(C)C)C(C)(C)C)C(C)(C)c1ccccc1 [Compound 45, (S,E)-2,5-dimethyl-N-(pyridin-3-ylmethylsulfonyl)-4-((S)—N,3,3-trimethyl-2-((S)-3-methyl-2-(methylamino)-3-phenylbutanamido)butanamido)hex-2-enamide]",EC50,[2],0.869 nM
same,EC50,[1],0.373 nM
"CN[C@H](C(=O)N[C@H](C(=O)N(C)[C@H](/C=C(\C)C(=O)NS(=O)(=O)c1ccc(C(C)(C)C)cc1)C(C)C)C(C)(C)C)C(C)(C)c1ccccc1 [Compound 16, (S,E)-N-(4-tert-butylphenylsulfonyl)-2,5-dimethyl-4-((S)—N,3,3-trimethyl-2-((S)-3-methyl-2-(methylamino)-3-phenylbutanamido)butanamido)hex-2-enamide]",EC50,[2],0.041 nM
"CCc1cc(N)ccc1S(=O)(=O)NC(=O)/C(C)=C/[C@H](C(C)C)N(C)C(=O)[C@@H](NC(=O)[C@@H](NC)C(C)(C)c1ccccc1)C(C)(C)C [Compound 107, (S,E)-N-(4-amino-2-ethylphenylsulfonyl)-2,5-dimethyl-4-((S)—N,3,3-trimethyl-2-((S)-3-methyl-2-(methylamino)-3-phenylbutanamido)butanamido)hex-2-enamide]",EC50,[1],0.043 nM
same,EC50,[3],0.043 nM
"CN[C@H](C(=O)N[C@H](C(=O)N(C)[C@H](/C=C(\C)C(=O)NS(=O)(=O)C1CCCCC1)C(C)C)C(C)(C)C)C(C)(C)c1ccccc1 [Compound 44, (S,E)-N-(cyclohexylsulfonyl)-2,5-dimethyl-4-((S)—N,3,3-trimethyl-2-((S)-3-methyl-2-(methylamino)-3-phenylbutanamido)butanamido)hex-2-enamide]",EC50,[2],0.114 nM
same,EC50,[1],1.48 nM
"CN[C@H](C(=O)N[C@H](C(=O)N(C)[C@H](/C=C(\C)C(=O)NS(=O)(=O)CCc1ccccc1)C(C)C)C(C)(C)C)C(C)(C)c1ccccc1 [Compound 67, (S,E)-2,5-dimethyl-N-(phenethylsulfonyl)-4-((S)—N,3,3-trimethyl-2-((S)-3-methyl-2-(methylamino)-3-phenylbutanamido)butanamido)hex-2-enamide]",EC50,[1],0.562 nM
"CN[C@H](C(=O)N[C@H](C(=O)N(C)[C@H](/C=C(\C)C(=O)NS(=O)(=O)c1cccnc1)C(C)C)C(C)(C)C)C(C)(C)c1ccccc1 [Compound 49, (S,E)-2,5-dimethyl-N-(pyridin-3-ylsulfonyl)-4-((S)—N,3,3-trimethyl-2-((S)-3-methyl-2-(methylamino)-3-phenylbutanamido)butanamido)hex-2-enamide]",EC50,[2],2.5 nM
"CN[C@H](C(=O)N[C@H](C(=O)N(C)[C@H](/C=C(\C)C(=O)NS(=O)(=O)Cc1ccccc1)C(C)C)C(C)(C)C)C(C)(C)c1ccc(OC)cc1 [Compound 91, (S,E)-N-(benzylsulfonyl)-4-((S)-2-((S)-3-(4-methoxyphenyl)-3-methyl-2-(methylamino)butanamido)-N,3,3-trimethylbutanamido)-2,5-dimethylhex-2-enamide]",EC50,[1],0.109 nM
"CN[C@H](C(=O)N[C@H](C(=O)N(C)[C@H](/C=C(\C)C(=O)NS(=O)(=O)NCc1ccccc1C(F)(F)F)C(C)C)C(C)(C)C)C(C)(C)c1ccccc1 [Compound 32, (S,E)-2,5-dimethyl-N—(N-(2-(trifluoromethyl)benzyl)sulfamoyl)-4-((S)—N,3,3-trimethyl-2-((S)-3-methyl-2-(methylamino)-3-phenylbutanamido)butanamido)hex-2-enamide]",EC50,[2],0.265 nM
"CN[C@H](C(=O)N[C@H](C(=O)N(C)[C@H](/C=C(\C)C(=O)NS(=O)(=O)c1ccc(N)c(C)c1C)C(C)C)C(C)(C)C)C(C)(C)c1ccccc1 [Compound 109, (S,E)-N-(4-amino-2,3-dimethylphenylsulfonyl)-2,5-dimethyl-4-((S)—N,3,3-trimethyl-2-((S)-3-methyl-2-(methylamino)-3-phenylbutanamido)butanamido) hex-2-enamide]",EC50,[1],0.087 nM
same,EC50,[3],0.087 nM
"CN[C@H](C(=O)N[C@H](C(=O)N(C)[C@H](/C=C(\C)C(=O)NS(=O)(=O)c1ccc(C2(NC(=O)C(F)(F)F)CC2)cc1)C(C)C)C(C)(C)C)C(C)(C)c1ccccc1 [Compound 62, (S,E)-2,5-dimethyl-N-(4-(1-(2,2,2-trifluoroacetamido)cyclopropyl)phenylsulfonyl)-4-((S)—N,3,3-trimethyl-2-((S)-3-methyl-2-(methylamino)-3-phenylbutanamido)butanamido)hex-2-enamide]",EC50,[1],1.2 nM
